From patent US7968093B2, “Fully human antibodies directed against the human insulin-like growth factor-1 receptor” (ImClone LLC, priority 2003, dated 2011)

Tests used:
[1] = target: T1, insulin receptor (IR) (Homo sapiens, UniProt P06213); test: Blocking of radiolabeled insulin binding to ZR-75I cells; conditions: ZR-75I breast cancer cells; antibody up to 200 nM
T1 construct: endogenous in cells; host or cells: ZR-75I human breast cancer cells

[2] = target: T2, mouse IGF-IR (Mus musculus, UniProt Q60751); test: FACs binding analysis to mouse cell lines; assay type: cell-based; conditions: mouse tumor cell line Lewis Lung carcinoma
T2 construct: endogenous in cells; host or cells: Lewis Lung carcinoma (mouse); R- mouse embryo fibroblasts (IGF-IR negative control)

[3] = test system: mouse IGF-IR; test: FACs binding analysis to mouse cell lines; assay type: cell-based; conditions: IGF-IR negative mouse embryo fibroblasts (R- cells)
[4] = target: T3, IGF-IR on MCF7 cells (Homo sapiens, UniProt P08069); test: IGF-IR surface receptor density by FACS; assay type: cell-based; conditions: MCF7 cells incubated at 4° C.
T3 construct: endogenous in cells
Method: IGF-IR surface receptor density was determined by FACS. […] Cells were washed in ice-cold PBS/5% BSA twice, and 1×10^6 cells were aliquoted to staining tubes and placed on ice. An IGF-IR alpha-polypeptide specific, non-blocking mouse monoclonal antibody (Ab-1, NeoMarkers, Fremont, Calif.), was then incubated with cells at 4° C. for 2 h. After PBS/BSA washes, cells were incubated with anti-mouse IgG phycoerythrin-conjugated secondary antibody (PharMingen, BD Biosciences) for 1 h on ice. After PBS/BSA wash, cells were analyzed by fluorescence-activated cell-sorting assay using a FACSvantage SE flow cytometer (BD Bioscience).

[5] = target: T4, IGF-IR in HT-29 cells and BxPC-3 cells (Homo sapiens, UniProt P08069); test: Total cellular IGF-IR after treatment; assay type: cell-based; conditions: HT-29 and BxPC-3 cells; A12 after 3-6 hours
T4 construct: endogenous in cells; HT-29; BxPC-3; HEL

[6] = test system: human colorectal cancer line HT-29; test: HT-29 xenograft, A12 monotherapy; assay type: in vivo, mouse
Method: We were interested to determine if the anti-IGF-IR antibodies were capable of inhibiting human tumor growth in vivo in a nude mouse xenograft model. Tumors were induced in 3-4 week old athymic nude (nu/nu) mice by subcutaneous injection of 2-3 million viable HT-29 human colorectal cancer cells in cell culture medium. The tumors were allowed to establish and antibody treatment started when the tumor volume reached 200 mm^3. Ten animals were injected with tumor cells per treatment group. Antibody was injected intraperitoneally (IP) every three days at 1 mg or 0.5 mg in 0.5 ml TBS. The drug irenotecan (CPT-11) (LKT Laboratories) was injected IP (100 mg/kg) once a week for four weeks from the initiation of antibody treatment. Control animals received a class matched irrelevant human IgG antibody. Tumor measurements were performed at regular intervals using Vernier calipers, measuring height, width, and length and calculated to determine the total tumor volume. The study was terminated when control tumors reached 3000 mm^3.
Tumors were induced as previously described, and antibody treatment initiated once tumors were established (200 mm^3 size). Antibody treatment was then given at a concentration of 1 mg, 100 μg, or 10 μg every three days throughout the duration of the experiment. Ten animals were used per treatment group and control animals received a class match IgG control antibody.

[7] = test system: BxPC-3 human pancreatic carcinoma cells; test: BxPC-3 xenograft, A12 with CPT-11 or gemcitabine; assay type: in vivo, athymic nu/nu mice
Method: Athymic nu/nu mice were injected subcutaneously with 2×10^6 BxPC-3 human pancreatic carcinoma cells mixed 1:1 with Matrigel. […] All treatments were administered by intraperitoneal injection. Tumor measurements were recorded twice weekly using the formula Volume=(π/6)l×w^2.
At day 18 three animals per group were sacrificed and the tumors resected for midpoint histological evaluation. Treatment and tumor measurements continued on the remaining animals until day 44 with the exception of the TBS group. […] At termination of the study final tumor measurements were recorded, animals sacrificed, and four per group had tumors resected for endpoint histological evaluation.

[8] = target: T5, IGF-IR (Homo sapiens, UniProt P08069); test: IGF-I mediated IGF-IR auto-phosphorylation, western blot; assay type: cell-based; parameters: endogenous in cells; HT-29; BxPC-3; HEL
[9] = target: T5, IGF-IR; test: Blocking of 125I-IGF-I binding to immobilized soluble IGF-IR; parameters: recombinant extracellular portion of human IGF-IR was used to screen
Method: Forty 40 pM of ^125I-IGF-I was then added and the plates incubated an additional 90 minutes. […] Affinity was determined by BIAcore analysis according to manufacturer's specifications (Pharmacia BIACORE 3000). Soluble IGF-IR was immobilized on the sensor chips and antibody binding kinetics determined. […] The activity of A12 remained the same, irrespective of whether the light chain was engineered with a human lambda or kappa class constant region. Antibody A12 engineered with a lambda class light chain was utilized in all subsequent procedures.

[10] = target: T5, IGF-IR; test: BIAcore binding kinetics on immobilized soluble IGF-IR; parameters: recombinant extracellular portion of human IGF-IR was used to screen; conditions: full IgG, BIACORE 3000
Method: Binding kinetic analysis was performed on 2F8 IgG using a BIAcore unit.
(§1) Binding results were determined by human IGF-IR ELISA and represent the concentration of titered antibody necessary to achieve 50% binding relative to saturation. Blocking results represent the level of antibody necessary to inhibit 50% binding of ^125I-IGF-I ligand to immobilized human IGF-IR. Affinity was determined by BIAcore analysis according to manufacturer's specifications (Pharmacia BIACORE 3000). Soluble IGF-IR was immobilized on the sensor chips and antibody binding kinetics determined.

[11] = target: T5, IGF-IR; test: Human IGF-IR binding ELISA; parameters: recombinant extracellular portion of human IGF-IR was used to screen; conditions: full IgG; 50% binding relative to saturation; read-out: Binding (ED50)
Method: as §1

T2 sequence (Q60751 31-737 limits assumed): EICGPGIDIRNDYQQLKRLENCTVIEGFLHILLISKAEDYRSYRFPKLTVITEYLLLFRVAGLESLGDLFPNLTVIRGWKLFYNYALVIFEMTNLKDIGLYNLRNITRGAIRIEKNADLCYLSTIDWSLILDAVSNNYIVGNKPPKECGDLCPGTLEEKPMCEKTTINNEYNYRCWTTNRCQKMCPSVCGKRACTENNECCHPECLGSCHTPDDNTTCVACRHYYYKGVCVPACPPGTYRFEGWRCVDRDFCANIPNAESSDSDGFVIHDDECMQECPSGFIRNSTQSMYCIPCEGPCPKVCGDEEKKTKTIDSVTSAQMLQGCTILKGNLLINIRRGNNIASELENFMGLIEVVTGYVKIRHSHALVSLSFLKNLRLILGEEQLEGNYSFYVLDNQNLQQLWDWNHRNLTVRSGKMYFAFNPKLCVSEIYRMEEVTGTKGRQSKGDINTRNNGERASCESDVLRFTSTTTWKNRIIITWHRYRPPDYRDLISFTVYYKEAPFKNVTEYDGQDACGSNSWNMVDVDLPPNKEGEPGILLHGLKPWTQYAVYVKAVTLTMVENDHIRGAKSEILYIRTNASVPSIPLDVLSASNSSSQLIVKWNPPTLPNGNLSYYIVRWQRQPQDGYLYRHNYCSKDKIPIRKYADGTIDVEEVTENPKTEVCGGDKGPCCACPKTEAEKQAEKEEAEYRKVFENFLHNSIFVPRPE
T2 sequence (Q60751 742-1373 limits assumed): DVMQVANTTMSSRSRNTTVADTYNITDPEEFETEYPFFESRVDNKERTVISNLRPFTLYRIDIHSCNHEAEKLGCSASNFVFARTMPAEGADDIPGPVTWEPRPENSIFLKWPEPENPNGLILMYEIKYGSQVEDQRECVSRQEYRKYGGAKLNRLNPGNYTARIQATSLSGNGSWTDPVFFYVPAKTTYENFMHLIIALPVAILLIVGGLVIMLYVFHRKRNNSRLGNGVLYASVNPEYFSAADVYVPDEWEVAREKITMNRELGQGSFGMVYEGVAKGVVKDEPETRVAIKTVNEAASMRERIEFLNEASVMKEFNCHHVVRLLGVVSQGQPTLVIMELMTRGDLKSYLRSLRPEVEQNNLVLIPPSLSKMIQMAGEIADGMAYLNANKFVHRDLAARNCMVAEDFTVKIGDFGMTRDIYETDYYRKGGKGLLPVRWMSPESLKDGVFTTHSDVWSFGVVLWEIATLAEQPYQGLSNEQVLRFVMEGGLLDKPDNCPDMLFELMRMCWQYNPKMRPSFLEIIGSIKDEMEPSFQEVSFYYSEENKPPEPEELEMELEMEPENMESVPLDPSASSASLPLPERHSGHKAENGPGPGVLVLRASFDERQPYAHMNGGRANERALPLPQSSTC

A12: fully human IgG1 anti-IGF-IR antibody, lambda light chain; VH SEQ ID NO:2, VL SEQ ID NO:10; affinity matured from 2F8
blocking of insulin binding [1]: neither 2F8 nor the high affinity A12 antibody blocked insulin binding | FACs shift [2]: partially shift | FACs binding [3]: failed to bind | shift of surface IGF-IR fluorescence intensity [4]: shift was not seen | effect on total cellular IGF-IR [5]: severe depletion of IGF-IR levels | anti-tumor activity ([6]; 100 μg every three days): Anti-tumor activity was also observed | reduction in tumor growth compared to control ([6]; every three days, P<0.05, dose of this value not stated (1 mg, 100 μg, 10 μg tested)): 74% | animals with partial tumor regressions ([7]; after five weeks of treatment): 2 of eight | Regressions (individual tumor volumes < day 1 of treatment) ([7]; day 19, animals regressing/animals in group): 2/12 | T/C % ([7]; day 19, ip, A12 1 mg 3 times per week, irinotecan 1 mg or gemcitabine 2.5 mg every 7 days): 57% | Regressions (individual tumor volumes < day 1 of treatment) ([7]; day 23): 2/9 | T/C % ([7]; day 23, same regimens): 49% | Regressions (individual tumor volumes < day 1 of treatment) ([7]; day 26): 2/9 | T/C % ([7]; day 26, same regimens): 40% | Regressions (individual tumor volumes < day 1 of treatment) ([7]; day 30): 2/8 | T/C % ([7]; day 30, same regimens): 40% | Regressions (individual tumor volumes < day 1 of treatment) ([7]; day 32): 2/8 | T/C % ([7]; day 32, same regimens): 39% | Regressions (individual tumor volumes < day 1 of treatment) ([7]; day 37): 2/8 | Regressions (individual tumor volumes < day 1 of treatment) ([7]; day 41): 2/8 | Regressions (individual tumor volumes < day 1 of treatment) ([7]; day 44): 2/8 | inhibition of IGF-IR auto-phosphorylation ([8]; BxPC-3 pancreatic cancer cells): inhibited auto-phosphorylation of IGF-IR | inhibition of IGF-IR auto-phosphorylation ([8]; HT-29 colorectal cancer cells): inhibited auto-phosphorylation of IGF-IR | agonist activity: receptor phosphorylation by antibody alone ([8]; MCF7 cells, serum deprived, no ligand): did not induce receptor phosphorylation | block of IGF-IR phosphorylation ([8]; MCF7 cells, 10 nM IGF-I): nearly completely blocked phosphorylation | inhibition of radiolabeled IGF-I binding compared with cold ligand ([9]; FIG. 15): to a greater extent than competition with cold ligand | increase in blocking activity of ligand for immobilized receptor, A12 versus 2F8 ([9]; full IgG): at least a three-fold increase | Affinity Koff [10]: Koff = 3.0 × 10^−5 | Affinity Kon [10]: Kon = 7.2 × 10^5 | Kd ([10]; read-out: Affinity KD): 0.041 nM | EC50 [11]: 0.3 nM
